Experimental data from US20020039567A1, “Methods of treating bone or cartilage conditions by the administration of creatine” (priority 1998, published 2002).

Experiments:
[1] = test system: osteoblasts (monolayer culture); assay: Mineralization (von Kossa, image analysis), monolayer osteoblast cell culture; format: cell-based, rat; details: for mineralization (FIG. 3): no significant difference between groups
Procedure: This isolation technique is based on the ability of osteoblasts to migrate from bone onto a substratum. Parietal and frontal calvariae (4 per animal) were aseptically explanted from 6 day-old IcoIbm rats. The calvariae were placed in Tyrode's balanced salt solution, calcium and magnesium free (TESS). The periosteum was enzymatically removed with 0.05% trypsin and 0.02% collagenase A (0.76 U/mg) dissolved in TBSS (40 calvaria/20 ml). The calvariae were shaken for 70 minutes in a waterbath at 37° C. They were washed with TESS and then transferred to 60 mm culture dishes (40 calvariae/dish) containing 5 ml of 0.02% collagenase A (0.76 U/mg) in culture medium BGJb Fitton-Jackson modification and placed in the incubator for 4 hours. The calvariae were then washed with culture medium B supplemented with 10% foetal calf serum (FCS). The calvariae were transferred into 60 mm culture dishes (4 frontal and 4 parietal/dish). The growth medium supplemented with 10% FCS and 50 μg/ml ascorbate was completely changed every 48 hours. The culture was kept for 3 weeks. After 3 weeks the migrated cells were harvested. The dish was washed with TESS, and 5 ml of TESS containing 0.05% trypsin and 0.02% collagenase A (0.76 U/mg) was added. After 1 hour in the incubator, the dish was washed with culture medium BGJb supplemented with 10% FCS. The dishes containing the calvariae and cells were rinsed with serum containing media BGJb. The cells obtained were filtered through a 40 μm nylon mesh to remove bone debris and cell aggregates. The suspended cells were centrifuged at 600 g for 5 minutes. The cell pellet was resuspended in serum containing medium BGJb and centrifuged. The viability of the resuspended cells was examined by the dye exclusion of 0.4% trypan blue, and the cells were counted in a haeinocytometer. The inoculation densities were 2·10^5/10 cm^2 for monolayer and 2·10^5/30 μl for micromasses. The micromass cultures were kept for 1 hour in the incubator before 2 ml growth medium was added. All the cultures were kept at 37° C. in a humidified atmosphere of 5% CO2, 95% air. All culture media were supplemented with 50 μg/ml ascorbate. To analyze the collagen types, 60 μg/ml beta-aminopropionitrile (beta-APN) was added to the culture medium. During cell isolation and inoculation, no ascorbate was used to increase plating efficiency. No antibiotics and no beta-glycerophosphate were added. The media were completely changed every 48 hours (60 mm culture dish 5 ml; 35 mm culture dish 2 ml). The most specific method for detecting calcified matrices is the von Kossa reaction. Silver staining indicates the presence of calcium phosphate aggregated with certain organic acids. Structural details are completely obscured by the dark precipitate. Calcified tissue components are darkened in various shades from light brown to deep black, irrespective of their mineral content. [table] In the further experiments to quantify the calcification by image analysis of a center area (123 mm^2) of the culture dish, only the creatine groups were compared to the control groups, with the GPA-treated cells not further evaluated.

[2] = test system: osteoblasts (monolayer culture); assay: Metabolic activity (MTT), monolayer osteoblast cell culture; format: cell-based, rat; details: for metabolic activity measured by the MTT reaction / MTT reaction: preliminary
Procedure: This isolation technique is based on the ability of osteoblasts to migrate from bone onto a substratum. Parietal and frontal calvariae (4 per animal) were aseptically explanted from 6 day-old IcoIbm rats. The calvariae were placed in Tyrode's balanced salt solution, calcium and magnesium free (TESS). The periosteum was enzymatically removed with 0.05% trypsin and 0.02% collagenase A (0.76 U/mg) dissolved in TBSS (40 calvaria/20 ml). The calvariae were shaken for 70 minutes in a waterbath at 37° C. They were washed with TESS and then transferred to 60 mm culture dishes (40 calvariae/dish) containing 5 ml of 0.02% collagenase A (0.76 U/mg) in culture medium BGJb Fitton-Jackson modification and placed in the incubator for 4 hours. The calvariae were then washed with culture medium B supplemented with 10% foetal calf serum (FCS). The calvariae were transferred into 60 mm culture dishes (4 frontal and 4 parietal/dish). The growth medium supplemented with 10% FCS and 50 μg/ml ascorbate was completely changed every 48 hours. The culture was kept for 3 weeks.
After 3 weeks the migrated cells were harvested. The dish was washed with TESS, and 5 ml of TESS containing 0.05% trypsin and 0.02% collagenase A (0.76 U/mg) was added. After 1 hour in the incubator, the dish was washed with culture medium BGJb supplemented with 10% FCS. The dishes containing the calvariae and cells were rinsed with serum containing media BGJb. The cells obtained were filtered through a 40 μm nylon mesh to remove bone debris and cell aggregates. The suspended cells were centrifuged at 600 g for 5 minutes. The cell pellet was resuspended in serum containing medium BGJb and centrifuged. The viability of the resuspended cells was examined by the dye exclusion of 0.4% trypan blue, and the cells were counted in a haeinocytometer. The inoculation densities were 2·10^5/10 cm^2 for monolayer and 2·10^5/30 μl for micromasses. The micromass cultures were kept for 1 hour in the incubator before 2 ml growth medium was added.
All the cultures were kept at 37° C. in a humidified atmosphere of 5% CO2, 95% air. All culture media were supplemented with 50 μg/ml ascorbate. To analyze the collagen types, 60 μg/ml beta-aminopropionitrile (beta-APN) was added to the culture medium. During cell isolation and inoculation, no ascorbate was used to increase plating efficiency. No antibiotics and no beta-glycerophosphate were added. The media were completely changed every 48 hours (60 mm culture dish 5 ml; 35 mm culture dish 2 ml).
The Böhringer Cell Proliferation Kit I (MTT) was used for the assay, but we used a different solvent to dissolve the MTT crystals.
Originally, Mosmann, 1983 described the general principle involved in the detection of cell growth/cell death as indicated by the conversion of the tetrazolium salt (MTT) to the colored formazan by mitochondrial dehydrogenases. The concentration of this can then be measured spectrophotoinetrically.
1. MTT Stock (5 mg/ml in sterile PBS) from Böhringer was diluted […] with complete growth medium and sterile filtering.
2. The cells were incubated in 2 ml/10 cm^2 MTT solution at 37° C. for 3 hours.
3. The supernatant was carefully removed.
4. 4 ml/10 cm^2 dimethylsulphoxide (DMSO) was added.
5. The dishes were placed on a shaker until the crystals were completely dissolved.
6. The absorbance of the supernatant (3 aliquots/dish) was read at 550 nm versus DMSO.
If the absorbance was higher than 1, the samples were diluted with DMSO.
The mean value and the standard deviation consisted of n independent experiments. The values for the individual experiments were gained from the mean of 3 aliquots of the same dish. To compare the treatment, contrasts analysis of variance models were evaluated.

Row | SMILES | calcification pattern ([1]; 3 weeks, GPA groups, mineralization not limited to the nodules) | effects on the metabolism and the viability of the cells ([2]; GPA-treated osteoblasts, summary) | metabolic activity measured by the MTT reaction ([2]; 2 weeks, 10 mM GPA vs control) | MTT reaction ([2]; 3 weeks, 1 mM or 5 mM GPA vs control) | MTT reaction ([2]; 3 weeks, 10 mM GPA vs control) | mineralization (FIG. 3) ([1]; 10 mM creatine vs control, 3 weeks) | calcified area (FIG. 3) ([1]; 20 mM creatine vs control, 2 weeks, p<0.02, center area 123 mm^2) | mineralization (FIG. 3) ([1]; 20 mM creatine, 3 weeks, compared with 10 mM) | mineralization, mean values ([1]; creatine groups vs control, after 2 and 3 weeks) | metabolic activity (MTT) (FIG. 2) ([2]; 10 mM and 20 mM creatine vs control, 1 week) | metabolic activity (MTT) (FIG. 2) ([2]; 10 mM creatine vs control, 2 weeks, p<0.015) | metabolic activity (MTT) (FIG. 2) ([2]; 10 mM creatine vs control, 3 weeks, p<0.001) | metabolic activity (MTT) (FIG. 2) ([2]; 20 mM creatine vs control, 2 weeks, p<0.0025) | metabolic activity (MTT) (FIG. 2) ([2]; 20 mM creatine vs control, 3 weeks, p<0.001) | metabolic activity measured by the MTT reaction ([2]; 2 weeks, creatine groups vs control) | MTT reaction ([2]; 3 weeks, creatine vs control)
1 | N=C(N)NCCC(=O)O [GPA, beta-guanidinopropionic acid] | different from the control and the creatine groups | adverse effects on both the metabolism and the viability of the cells | lower values than the control | lower values than the control | comparable to the control |  |  |  |  |  |  |  |  |  |  | 
2 | CN(CC(=O)O)C(=N)N [creatine] |  |  |  |  |  | more mineralization than the control | significantly higher | less effective | Mean values were higher | all groups were similar | control group was significantly lower than the 10 mM creatine | significantly higher than the control group | control group was significantly lower than the 10 mM creatine and the 20 mM creatine | significantly higher than the control group | slightly stimulated | stimulated the MTT reaction
